In patent US20180255777A1, “Metal Ion Complex-Modified Layered Silicates” (priority 2017, published 2018):

Tested on: E. coli
Test: Disk diffusion method, zone of inhibition
Format: cell-based, Escherichia coli
Method: Working solutions were prepared by dissolving of N-alkylimidazoles (100 mg) in ethanol (50 μL). Blank disks were impregnated with 10 μL of solution and the disks placed on nutrient agar containing a confluent E. coli culture. The plates were incubated at 37° C. for 18-24 h and antimicrobial activity determined by measuring the zone of inhibition. The experiments were performed in triplicate.
The antibacterial activity of N-alkylimidazoles was investigated by the disk diffusion and broth methods against E. coli as a model microorganism.

silver(I)-N-octylimidazole complex [Ag(octlm)2]
antibacterial activity (in words) (disk diffusion against E. coli, comparison across alkyl chain lengths): superior activity | Zone of inhibition diameter (disk diffusion, nutrient agar with confluent E. coli culture, 37° C., 18-24 h, triplicate): 21 ± 1.4 mm
